We go through 1 molecule from ChEMBL document CHEMBL5316291 (J Med Chem, 2023).

Data set [1] is described as follows: AUC(0 to infinity) in ICR mouse at 1 mg/kg, iv measured upto 24 hrs by LC-MS/MS analysis. Further details: time < 24 hrs, dose 1 mg/kg, route iv. To be noted: in vivo. In kind it is ADME, organism-based.
Data set [2] concerns the target Voltage-gated inwardly rectifying potassium channel KCNH2 (Homo sapiens, UniProt Q12809). Description: Inhibition of hERG. In kind it is toxicity.
Data set [3] deals with Poly [ADP-ribose] polymerase 2 (Homo sapiens, UniProt Q9UGN5). Description: Inhibition of human recombinant N-terminal GST-tagged PARP2 (2 to 583 residues) expressed in baculovirus infected Sf9 cells expression system incubated for 1 hr by ELISA assay.
Data set [4] is described as follows: Oral bioavailability in ICR mouse at 10 mg/kg measured upto 24 hrs by LC-MS/MS analysis. In kind it is ADME, organism-based. Particulars: in vivo.
The subject of data set [5] is CT26. Description: Antitumor activity against mouse CT26 cells implanted in BALB/c mouse assessed as nuclear chromatin margination at 25 to 100 mg/kg, po bid measured for 14 days by hematoxylin and eosin staining based fluorescence microscopic analysis. To be noted: dose 25-100 mg/kg, time 14.0 day. The data set is classed as functional, organism-based.
Data set [6] is described as follows: Tmax in ICR mouse at 1 mg/kg, iv measured upto 24 hrs by LC-MS/MS analysis. In kind it is ADME, organism-based. To be noted: in vivo.
Data set [7] in a line: MRT(0 to infinity) in ICR mouse at 10 mg/kg, po measured upto 24 hrs by LC-MS/MS analysis. The data set is classed as ADME, organism-based. Particulars: in vivo.
In data set [8] the test system is CT26. Description: Antitumor activity against mouse CT26 cells xenografted in BALB/c mouse assessed as tumor growth inhibition at 100 mg/kg, po bid measured for 14 days. The data set is classed as functional. To be noted: CT26, 336 h, time 14 day, read-out: TGI.
Data set [9] has as its target T1, Protein mono-ADP-ribosyltransferase TIPARP (Mus musculus) (UniProt Q8C1B2).
T1 sequence (whole entry): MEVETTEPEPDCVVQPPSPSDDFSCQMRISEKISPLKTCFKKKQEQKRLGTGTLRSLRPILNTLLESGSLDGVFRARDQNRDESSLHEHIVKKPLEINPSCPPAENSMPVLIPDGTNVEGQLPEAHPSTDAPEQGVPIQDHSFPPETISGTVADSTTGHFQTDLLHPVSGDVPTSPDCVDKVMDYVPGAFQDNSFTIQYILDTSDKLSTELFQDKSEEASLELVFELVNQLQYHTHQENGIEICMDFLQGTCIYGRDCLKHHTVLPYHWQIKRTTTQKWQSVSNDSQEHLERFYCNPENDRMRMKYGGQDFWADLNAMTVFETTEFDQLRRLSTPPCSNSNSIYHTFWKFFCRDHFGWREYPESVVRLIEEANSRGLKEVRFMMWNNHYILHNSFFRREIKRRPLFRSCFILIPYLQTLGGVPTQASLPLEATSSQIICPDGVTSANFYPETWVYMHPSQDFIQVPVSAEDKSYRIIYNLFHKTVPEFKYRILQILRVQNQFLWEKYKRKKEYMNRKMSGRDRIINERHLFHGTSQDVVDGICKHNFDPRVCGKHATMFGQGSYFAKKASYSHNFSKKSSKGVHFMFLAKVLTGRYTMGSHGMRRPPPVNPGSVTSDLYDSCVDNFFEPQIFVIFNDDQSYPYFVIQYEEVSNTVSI
Description: Inhibition of PARP7 in mouse CT26 cells assessed as increase in STAT1 phosphorylation incubated for 6 hrs in presence of DMXAA by Western blotting analysis. To be noted: dose 0.44-4 µM. In kind it is cell-based. On the technique in general: Immunoblotting shows a protein as a band on a membrane.

Data set [10] has as its target T2, Protein mono-ADP-ribosyltransferase PARP10 (Homo sapiens, UniProt Q53GL7).
T2 sequence (Q53GL7 whole entry): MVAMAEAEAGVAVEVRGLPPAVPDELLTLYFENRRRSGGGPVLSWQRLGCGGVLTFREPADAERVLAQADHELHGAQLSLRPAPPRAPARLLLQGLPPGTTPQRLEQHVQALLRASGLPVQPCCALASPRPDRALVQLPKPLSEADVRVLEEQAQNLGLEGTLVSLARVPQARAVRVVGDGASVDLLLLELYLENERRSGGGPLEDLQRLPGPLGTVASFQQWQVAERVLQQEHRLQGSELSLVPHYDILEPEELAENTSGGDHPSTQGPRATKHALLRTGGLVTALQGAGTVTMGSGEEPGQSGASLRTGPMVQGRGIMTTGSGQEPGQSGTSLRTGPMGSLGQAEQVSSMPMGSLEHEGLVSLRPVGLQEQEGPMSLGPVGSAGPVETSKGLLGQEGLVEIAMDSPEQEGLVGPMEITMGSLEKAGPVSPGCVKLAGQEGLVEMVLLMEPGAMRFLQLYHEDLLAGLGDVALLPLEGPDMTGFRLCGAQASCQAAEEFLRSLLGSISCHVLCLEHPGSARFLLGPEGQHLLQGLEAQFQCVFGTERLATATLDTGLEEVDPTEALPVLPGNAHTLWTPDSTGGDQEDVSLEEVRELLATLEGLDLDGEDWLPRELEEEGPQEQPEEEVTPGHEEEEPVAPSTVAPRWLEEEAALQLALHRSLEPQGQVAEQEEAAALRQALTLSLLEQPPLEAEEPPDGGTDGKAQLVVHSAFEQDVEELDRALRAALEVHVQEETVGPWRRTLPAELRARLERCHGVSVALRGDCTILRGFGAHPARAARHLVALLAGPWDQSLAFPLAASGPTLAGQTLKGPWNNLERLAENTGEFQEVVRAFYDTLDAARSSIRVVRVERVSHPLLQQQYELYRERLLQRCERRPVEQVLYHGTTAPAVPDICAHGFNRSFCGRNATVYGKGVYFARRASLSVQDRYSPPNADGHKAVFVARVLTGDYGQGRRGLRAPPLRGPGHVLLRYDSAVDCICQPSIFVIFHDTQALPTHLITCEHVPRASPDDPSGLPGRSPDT
Description: Inhibition of human recombinant N-terminal FLAG-tagged / C-terminal Strep-tagged PARP10 (805 to 1025 end residues) expressed in baculovirus infected Sf9 cells expression system incubated for 1 hr by ELISA assay. In general terms: An ELISA detects its analyte on a solid surface through an enzyme-linked reagent.

The nature of data set [11]: Clearance in ICR mouse at 10 mg/kg, po measured upto 24 hrs by LC-MS/MS analysis. The data set is classed as ADME, organism-based. Particulars: in vivo.
The subject of data set [12] is CT26. Description: Antitumor activity against mouse CT26 cells implanted in po dosed BALB/c mouse assessed as increase in IFN-beta levels at 100 mg/kg measured after 14 days by RT-qPCR analysis. Particulars: time 14.0 day. The data set is classed as functional, organism-based.
Data set [13] in a line: Cytotoxicity against mouse AML12 cells assessed as inhibition of cell growth measured after 6 days by MTT assay. In kind it is toxicity, cell-based. Background: Tetrazolium dyes change colour on reduction, which living cells bring about.
Data set [14] relates to CT26. Description: Antitumor activity against mouse CT26 cells implanted in BALB/c mouse assessed as increase in infiltration of CD3 positive CD4 positive T lymphocytes in tumors at 50 mg/kg, po measured after 14 days by flow cytometry (reference value: 7.95%). In kind it is functional. Particulars: time 14 day.
A short description of data set [15]: Toxicity in BALB/c mouse implanted with mouse CT26 cells assessed as change in body weight at 1000 mg/kg, po measured upto 7 days. To be noted: in vivo, 168 h, time < 7 day. In kind it is organism-based.
The nature of data set [16]: Tmax in ICR mouse at 10 mg/kg, po measured upto 24 hrs by LC-MS/MS analysis. In kind it is ADME, organism-based. To be noted: in vivo.
For data set [17], the system named is CT26. Description: Antitumor activity against mouse CT26 cells implanted in po dosed BALB/c mouse assessed as increase in CXCL10 levels measured after 14 days by RT-qPCR analysis. In kind it is functional, organism-based. Particulars: dose 25-100 mg/kg, time 14.0 day.

The structures appear in SMILES notation. Activity calls are given as the source filed them. The rule behind the calls is not given here.

Chain of Voltage-gated inwardly rectifying potassium channel KCNH2 (Q12809 whole entry, the tested form may be a part): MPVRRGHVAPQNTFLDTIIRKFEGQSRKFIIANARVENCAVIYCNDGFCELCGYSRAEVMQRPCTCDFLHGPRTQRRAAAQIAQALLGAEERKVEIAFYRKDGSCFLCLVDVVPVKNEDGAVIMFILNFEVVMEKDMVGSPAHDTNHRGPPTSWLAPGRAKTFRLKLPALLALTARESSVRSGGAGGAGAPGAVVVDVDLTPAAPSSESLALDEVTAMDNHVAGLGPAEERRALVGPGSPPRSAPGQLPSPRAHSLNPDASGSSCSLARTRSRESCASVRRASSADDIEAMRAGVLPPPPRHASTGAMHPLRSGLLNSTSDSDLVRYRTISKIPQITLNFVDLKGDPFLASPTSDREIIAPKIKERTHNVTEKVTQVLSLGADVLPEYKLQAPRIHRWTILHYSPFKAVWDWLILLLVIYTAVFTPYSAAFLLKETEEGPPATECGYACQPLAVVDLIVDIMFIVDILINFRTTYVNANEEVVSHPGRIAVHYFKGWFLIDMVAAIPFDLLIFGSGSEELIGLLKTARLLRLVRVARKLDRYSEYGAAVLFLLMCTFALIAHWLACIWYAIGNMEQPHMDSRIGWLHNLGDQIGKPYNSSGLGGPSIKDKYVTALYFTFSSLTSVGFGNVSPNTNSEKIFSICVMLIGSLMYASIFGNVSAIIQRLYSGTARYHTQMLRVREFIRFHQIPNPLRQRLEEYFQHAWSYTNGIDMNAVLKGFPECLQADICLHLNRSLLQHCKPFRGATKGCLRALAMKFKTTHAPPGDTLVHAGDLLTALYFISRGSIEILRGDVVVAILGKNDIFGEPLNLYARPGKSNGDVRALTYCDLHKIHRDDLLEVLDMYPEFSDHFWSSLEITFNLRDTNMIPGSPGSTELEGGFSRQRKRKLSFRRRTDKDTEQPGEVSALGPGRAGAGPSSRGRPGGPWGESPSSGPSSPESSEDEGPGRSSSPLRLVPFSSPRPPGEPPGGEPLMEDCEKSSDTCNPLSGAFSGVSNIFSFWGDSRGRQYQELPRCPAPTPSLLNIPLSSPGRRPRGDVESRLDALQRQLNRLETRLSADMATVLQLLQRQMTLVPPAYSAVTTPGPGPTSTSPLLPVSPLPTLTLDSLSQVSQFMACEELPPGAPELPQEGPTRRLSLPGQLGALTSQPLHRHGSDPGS
Chain of Poly [ADP-ribose] polymerase 2 (Q9UGN5 whole entry, the tested form may be a part): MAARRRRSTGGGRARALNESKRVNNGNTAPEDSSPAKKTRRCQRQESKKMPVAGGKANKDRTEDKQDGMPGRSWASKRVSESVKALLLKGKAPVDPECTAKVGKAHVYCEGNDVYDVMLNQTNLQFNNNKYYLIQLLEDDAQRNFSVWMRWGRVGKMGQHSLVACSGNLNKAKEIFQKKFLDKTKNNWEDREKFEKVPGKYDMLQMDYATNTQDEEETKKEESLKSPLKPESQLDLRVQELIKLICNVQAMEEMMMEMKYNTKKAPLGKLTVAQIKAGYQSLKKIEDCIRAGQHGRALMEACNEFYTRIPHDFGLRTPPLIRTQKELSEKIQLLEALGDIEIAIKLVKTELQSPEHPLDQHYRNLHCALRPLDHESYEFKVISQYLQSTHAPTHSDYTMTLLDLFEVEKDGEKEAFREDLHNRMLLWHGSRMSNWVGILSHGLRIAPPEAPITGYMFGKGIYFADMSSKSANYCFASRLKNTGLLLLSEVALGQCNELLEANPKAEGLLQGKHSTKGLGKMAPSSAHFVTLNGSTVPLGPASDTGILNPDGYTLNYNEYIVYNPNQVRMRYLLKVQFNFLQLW

The AUC is the area under the concentration-time curve, a measure of exposure. Lower therefore signals less exposure. The IC50 is the concentration that inhibits the measured activity by half. The term bioavailability denotes the share of a dose that reaches the circulation, judged against a reference dose that is usually intravenous. A higher bioavailability goes with much systemic uptake. For orientation: Tmax means the time from dosing to the highest level. In general, MRT inf refers to a mean duration of stay, worked out from the concentration-time curve. As usually defined, the CL/F is clearance divided by bioavailability, as obtained after extravascular dosing. `C[C@@H](CN1CC(C(=O)N2CCN(c3ncc(C(F)(F)F)cn3)CC2)C1)Nc1cn[nH]c(=O)c1C(F)(F)F` had an AUC in data set [1] of 591.1 ng·h/mL. In data set [2], the “inhibition (INH)” value is reported as “Not Active”. Further, the IC50 in data set [3] was found to be 546 nM; in data set [10] it was 325 nM. In [4], this molecule displayed a bioavailability of 95.8%. The result in [5] and in data set [12] was Active. Moreover, the Tmax worked out at 4.8 min in [6] and 0.58 h in [16]. The MRT inf in [7] worked out at 1.97 h. In addition, the inhibition in vivo at 100 mg/kg in [8] was 67%. Moreover, the inhibition result in data set [9] was “Dose-Dependent Effect”. In data set [11], this molecule gave a CL/F of 30.3 mL/min/kg. The IC50 at 6 days in data set [13] is more than 50000 nM. Moreover, the Activity was 63.1% in data set [14], “Non-Toxic” in data set [15] and “Dose-Dependent Effect” in [17].
